# Where two headings read alike, the source gives them in different places.
# How the values were obtained:
# PrP^sc = type: biochemical, bovine; conditions: for location of PrP^sc bands (starting supernatant or pellet) after centrifugation: 2.5, 5, 10 mg added to 50 μl PrP^sc sample, 37° C. 1 h; for location of PrP^sc bands (starting supernatant or pellet) after centrifugation / crosslinking and precipitation of PrP: FIG. 4; for crosslinking and precipitation of PrP: simple centrifuge, no ultracentrifugation
# PrP^res = type: biochemical, human
compound,measurement,setting,value
[H]/N=C(/N)N[C@H]1[C@H](O)[C@@H](O)[C@H](O[C@@H]2O[C@@H](C)[C@](O)(C=O)[C@H]2O[C@@H]2O[C@@H](CO)[C@H](O)[C@@H](O)[C@@H]2NC)[C@@H](N/C(N)=N\[H])[C@@H]1O [streptomycin],location of PrP^sc bands (starting supernatant or pellet) after centrifugation,PrP^sc; 12 000 rpm 5 min,the PrP^sc material is found in the pellet
same,crosslinking and precipitation of PrP,PrP^sc,induces crosslinking of PrP which allows complete precipitation thereof
NCCCNCCCN [bis-3-aminopropylamine],apparent molecular mass of the prion protein bands compared to a control without molecule,"PrP^sc; 130-1040 μg added to 5 μl PrP^sc, 30 min room temperature, pellet supernatant, FIG. 6",induces an increase in the apparent molecular mass of the 3 prion protein bands
same,precipitation of the prion protein on centrifugation,"PrP^sc; 130-1040 μg, 12 000 rpm 5 min, FIG. 6",the prion protein precipitates
heparin,sensitivity and specificity of detection of PrP^res of lymphoid origin in blood samples,PrP^res,confirms the sensitivity and the specificity of detection of PrP^res
NCCNCCNCCN [triethylenetetramine],apparent molecular mass of the prion protein bands compared to a control without molecule,"PrP^sc; 105-840 μg TET added to 5 μl PrP^sc (250 μg brain), supernatant, FIG. 5",induces an increase in the apparent molecular mass of the prion protein
same,crosslinking of PrP versus dose,"PrP^sc; 105-840 μg TET, FIG. 5",a crosslinking of PrP proportional to the dose of TET
CN[C@@H]1[C@H](O[C@H]2[C@H](O[C@H]3[C@H](O)[C@@H](O)[C@H](NC(=N)N)[C@@H](O)[C@@H]3NC(=N)N)O[C@@H](C)[C@]2(O)CO)O[C@@H](CO)[C@H](O)[C@H]1O [dihydrostreptomycin sesquisulfate],location of PrP^sc bands (starting supernatant or pellet) after centrifugation,PrP^sc; 12 000 rpm 5 min,the PrP^sc material is found in the pellet
same,crosslinking and precipitation of PrP,PrP^sc,induces crosslinking of PrP which allows complete precipitation thereof

# From patent US7566530B2 (priority 2004, dated 2009)
